Results as given in patent US8273775B2, “Non-steroidal brassinosteroid mimetic” (priority 2006, dated 2012).

Tested on: gene expression in Col-0 seedling shoots
Experiment: Microarray analysis (ATH1 Affymetrix) after BL or abrasin treatment
Type: in vivo, Arabidopsis
Settings: 30 min
Experimental: FIG. 14: Clustering of gene expression profiles by QT-clust analysis. Clusters illustrating the major patterns of the data sets. Points: BIK-30: 30 μM abrasin 30 min; BL-30: 1 μM brassinolide 30 min; DMSO-30: control DMSO 30 min; BIK-120: 30 μM abrasin 120 min; BL-120: 1 μM brassinolide 120 min; DMSO-120: control DMSO 120 min.
Col-0 seeds were germinated vertically on ½ MS medium for 7 days under 16 h light/8 h dark cycles. The seedlings were overlaid with liquid ½ MS medium containing 1 μM brassinolide (BL, Fuji Chemical Industries, Ltd., Toyama, Japan), 30 μM abrasin (BIK, ChemBridge Corporation) and DMSO and treated for 30 and 120 min. The shoot parts were collected for RNA isolation. All sampling points were performed in three independent experiments. RNA was extracted using RNeasy kit (Qiagene). […] total RNA per array was used to hybridise the ATH1 Affymetrix Arabidopsis arrays according to standard procedure. The overrepresentation analyses were performed using BiNGO software (Maere et al., 2005).
We performed a microarray analysis using the Arabidopsis whole genome chip (Affymetix) to determine whether abrasin activated the expression of BR-inducible genes at transcriptional level. Wild-type Col-0 seedlings were exposed to 1 μM BL, 30 μM ABRASIN and DMSO (mock-treatment) for two time points (30 min and 120 min) and the shoot parts were collected for RNA isolation. The analysis of the variance of the normalized gene expression data took in account the variability parameters affecting the expression level: type of hormone treatment, duration of treatment and the interaction between these two.

**Q.** What does the source list for `CC(C)[C@H](C)[C@@H](O)[C@H](O)[C@@H](C)[C@H]1CC[C@H]2[C@@H]3COC(=O)[C@H]4C[C@H](O)[C@H](O)C[C@]4(C)[C@H]3CC[C@]12C` [BL, brassinolide, reference compound]?
**A.** Fold-change AT4G16563 aspartyl protease family protein: 1.44; Fold-change AT4G16670 expressed protein: 0.78; Fold-change AT4G16780 homeobox-leucine zipper protein 4 (HAT4)/HD-ZIP protein: 0.62; Fold-change AT4G17250 expressed protein: 0.86; Fold-change AT4G17460 homeobox-leucine zipper protein 1 (HAT1)/HD-ZIP protein 1: 0.54; Fold-change AT4G21510 F-box family protein: 1.47; Fold-change AT4G23030 MATE efflux protein-related: 1.37; Fold-change AT4G23070 rhomboid family protein: 1.02; Fold-change AT4G23810 WRKY family transcription factor: 0.71; Fold-change AT4G24160 hydrolase, alpha/beta fold family protein: 1.13; Fold-change AT4G25620 hydroxyproline-rich glycoprotein family protein: 0.87; Fold-change AT4G25780 pathogenesis-related protein: 0.74; Fold-change AT4G27970 C4-dicarboxylate transporter/malic acid transport family protein: 1.20; Fold-change AT4G28240 wound-responsive protein-related: 0.77; Fold-change AT4G28490 leucine-rich repeat transmembrane protein kinase, putative: 1.00; Fold-change AT4G28703 expressed protein: 0.85; Fold-change AT4G28780 GDSL-motif lipase/hydrolase family protein: 1.25; Fold-change AT4G29070 expressed protein: 0.90; Fold-change AT4G30080 transcriptional factor B3 family protein: 0.94; Fold-change AT4G31020 expressed protein: 1.53; Fold-change AT4G32280 auxin-responsive AUX/IAA family protein (IAA29): 0.66; Fold-change AT4G33050 calmodulin-binding family protein: 0.99; Fold-change AT4G33700 CBS domain-containing protein: 0.81; Fold-change AT4G34610 homeodomain-containing protein: 0.86; Fold-change AT4G36110 auxin-responsive protein: 2.35; Fold-change AT4G36780 brassinosteroid signalling positive regulator-related: 0.71; Fold-change AT4G37240 expressed protein: 1.23; Fold-change AT4G37290 expressed protein: 0.90; Fold-change AT4G37590 phototropic-responsive NPH3 family protein: 0.90; Fold-change AT4G38840 auxin-responsive protein (SAUR14): 1.26; Fold-change AT4G38850 auxin-responsive protein (SAUR-AC1): 1.43; Fold-change AT4G38860 auxin-responsive protein (SAUR16): 1.38; Fold-change AT4G39400 brassinosteroid insensitive 1 (BRI1): 0.96; Fold-change AT5G02020 expressed protein: 0.99; Fold-change AT5G05690 cytochrome P450 90A1 (CYP90A1) (CYP90) (CPD): 0.93; Fold-change AT5G07690 myb family transcription factor (MYB29): 0.82; Fold-change AT5G08130 basic helix-loop-helix (bHLH) family protein (BIM2): 0.79; Fold-change AT5G12050 expressed protein: 0.73; Fold-change AT5G13180 no apical meristem (NAM) family protein: 1.07; Fold-change AT5G13740 sugar transporter family protein: 0.77; Fold-change AT5G14730 expressed protein: 0.80; Fold-change AT5G16200 50S ribosomal protein-related: 0.70; Fold-change AT5G16980 NADP-dependent oxidoreductase: 1.15; Fold-change AT5G18750 DNAJ heat shock N-terminal domain-containing protein: 1.03; Fold-change AT5G19200 short-chain dehydrogenase/reductase (SDR) family protein: 1.22; Fold-change AT5G19340 expressed protein: 0.68; Fold-change AT5G24030 C4-dicarboxylate transporter/malic acid transport family protein: 1.43; Fold-change AT5G24660 expressed protein: 1.33; Fold-change AT5G25240 expressed protein: 1.21; Fold-change AT5G25930 leucine-rich repeat family protein: 0.98; Fold-change AT5G27350 sugar-porter family protein 1 (SFP1): 1.11; Fold-change AT5G27670 histone H2A: 0.86; Fold-change AT5G38310 expressed protein: 0.98; Fold-change AT5G38990; AT5G39000 [AT5G38990, protein kinase family protein: 0.94; Fold-change AT5G39050 transferase family protein: 1.35; Fold-change AT5G39610 no apical meristem (NAM) family protein: 0.65; Fold-change AT5G39970 expressed protein: 1.08; Fold-change AT5G42830 transferase family protein: 0.87; Fold-change AT5G47370 homeobox-leucine zipper protein 2 (HAT2): 0.94; Fold-change AT5G48070 putative xyloglucan endotransglycosylase/hydrolase: 1.12; Fold-change AT5G48540 33 kDa secretory protein-related: 1.01; Fold-change AT5G51550 phosphate-responsive 1 family protein: 0.86; Fold-change AT5G54490 calcium-binding EF-hand protein, putative: 0.37; Fold-change AT5G54860 integral membrane transporter family protein: 0.92; Fold-change AT5G55970 zinc finger (C3HC4-type RING finger) family protein: 1.03; Fold-change AT5G56980 expressed protein: 0.75; Fold-change AT5G57190 phosphatidylserine decarboxylase: 1.04; Fold-change AT5G57780 expressed protein: 0.41; Fold-change AT5G59080 expressed protein: 0.62; Fold-change AT5G60200 Dof-type zinc finger domain-containing protein: 0.82; Fold-change AT5G60270 lectin protein kinase family protein: 1.03; Fold-change AT5G60630 expressed protein: 0.94; Fold-change AT5G61600 encodes a member of the ERF (ethylene response factor): 0.46; Fold-change AT5G62360 invertase/pectin methylesterase inhibitor family protein: 0.92; Fold-change AT5G65310 homeobox-leucine zipper protein 5 (HB-5)/HD-ZIP transcription factor 5: 0.91; Fold-change AT5G66420 expressed protein: 1.04; Fold-change AT5G66590 allergen V5/Tpx-1-related family protein: 1.21; Fold-change AT5G67450 zinc finger (C2H2 type) protein 1 (AZF1): 1.79; Fold-change of gene AT4G16140 (proline-rich family protein) (245479_at, Cluster 6): 0.83; Fold-change of gene AT4G15260 (UDP-glucoronosyl/UDP-glucosyl transferase family protein) (245543_at, Cluster 7): 1.01; Fold-change of gene AT5G09440 (phosphate-responsive protein, putative) (245885_at, Cluster 5): 0.58; Fold-change of gene AT1G77380 (amino acid carrier) (246389_at, Cluster 10): 0.94; Fold-change of gene AT5G15740 (expressed protein) (246516_at, Cluster 5): 0.95; Fold-change of gene AT5G65300 (expressed protein) (247177_at, Cluster 5): 0.25; Fold-change of gene AT5G64890 (expressed protein) (247205_at, Cluster 10): 0.97; Fold-change of gene AT5G63790 (no apical meristem (NAM) family protein) (247351_at, Cluster 9): 0.49; Fold-change of gene AT5G62630 (expressed protein) (247444_at, Cluster 7): 1.26; Fold-change of gene AT5G60850 (Dof-type zinc finger domain-containing protein) (247601_at, Cluster 10): 1.09; Fold-change of gene AT5G59510 (expressed protein) (247704_at, Cluster 9): 0.98; Fold-change of gene AT5G58660 (oxidoreductase. 2OG-Fe(II) oxygenase family protein) (247774_at, Cluster 5): 1.08; Fold-change of gene AT5G54120 (expressed protein) (248190_at, Cluster 5): 1.04; Fold-change of gene AT5G54130 (calcium-binding EF hand family protein) (248191_at, Cluster 5): 1.03; Fold-change of gene AT5G52900 (expressed protein) (248282_at, Cluster 6): 0.74; Fold-change of gene AT5G49100 (expressed protein) (248646_at, Cluster 9): 0.70; Fold-change of gene AT5G18060 (auxin-responsive protein) (250012_x_at, Cluster 6): 0.76; Fold-change of gene AT5G09800 (U-box domain-containing protein) (250493_at, Cluster 9): 0.80; Fold-change of gene AT5G08565 (expressed protein) (250537_at, Cluster 8): 1.06; Fold-change of gene AT5G03670 (expressed protein) (250907_at, Cluster 5): 0.60; Fold-change of gene AT5G01740 (expressed protein) (251072_at, Cluster 5): 0.53; Fold-change of gene AT3G63380 (calcium-transporting ATPase) (251176_at, Cluster 10): 0.87; Fold-change of gene AT3G60690 (auxin-responsive family protein) (251342_at, Cluster 9): 0.87; Fold-change of gene AT3G45610 (Dof-type zinc finger domain) (252586_at, Cluster 10): 0.90; Fold-change of gene AT3G44610 (protein kinase family protein) (252646_at, Cluster 5): 1.05; Fold-change of gene AT4G34760 (auxin-responsive family protein) (253255_at, Cluster 6): 0.81; Fold-change of gene AT4G34138 (UDP-glucoronosyl/UDP-glucosyl transferase family protein) (253281_at, Cluster 7): 1.17; Fold-change of gene AT4G31910 (transferase family protein) (253483_at, Cluster 5): 1.15; Fold-change of gene AT4G30410 (expressed protein) (253617_at, Cluster 5): 0.97; Fold-change of gene AT4G30450 (glycine-rich protein) (253629_at, Cluster 5): 0.88; Fold-change of gene AT4G26200 (1-aminocyclopropane-1-carboxylate synthase) (253999_at, Cluster 9): 0.29; Fold-change of gene AT4G03400 (auxin-responsive GH3 family protein) (255403_at, Cluster 6): 0.59; Fold-change of gene AT4G02700 (sulfate transporter) (255443_at, Cluster 7): 1.69; Fold-change of gene AT1G22190 (AP2 domain-containing transcription factor) (255926_at, Cluster 8): 0.83; Fold-change of gene AT1G66140 (zinc finger (C2H2 type) family protein) (256528_at, Cluster 6): 0.72; Fold-change of gene AT3G25655 (expressed protein) (256762_at, Cluster 8): 0.98; Fold-change of gene AT3G21420 (oxidoreductase, 2OG-Fe(II) oxygenase family protein) (256818_at, Cluster 7): 1.11; Fold-change of gene AT3G18280 (protease inhibitor/seed storage/lipid transfer protein) (257066_at, Cluster 5): 1.06; Fold-change of gene AT1G29440 (auxin-responsive family protein) (257506_at, Cluster 6): 0.69; Fold-change of gene AT3G29200 (chorismate mutase, chloroplast (CM1)) (257746_at, Cluster 5): 0.89; Fold-change of gene AT1G13260 (DNA-binding protein RAV1 (RAV1)) (259364_at, Cluster 8): 0.61; Fold-change of gene AT1G29500 (auxin-responsive protein) (259773_at, Cluster 6): 0.79; Fold-change of gene AT1G29510 (auxin-responsive protein) (259783_at, Cluster 6): 0.77; Fold-change of gene AT1G29450 (auxin-responsive protein) (259784_at, Cluster 6): 0.75; Fold-change of gene AT1G29460 (auxin-responsive protein) (259787_at, Cluster 6): 0.75; Fold-change of gene AT1G76690; AT1G76680 ([AT1G76690, 12-oxophytodienoate reductase (OPR2)) (259875_s_at, Cluster 7): 0.85; Fold-change of gene AT1G76620 (expressed protein) (259985_at, Cluster 8): 0.94; Fold-change of gene AT1G63720 (expressed protein) (260243_at, Cluster 10): 0.74; Fold-change of gene AT1G48100 (glycoside hydrolase family 28 protein) (260727_at, Cluster 8): 1.06; Fold-change of gene AT1G12200 (flavin-containing monooxygenase family protein) (261023_at, Cluster 7): 1.11; Fold-change of gene AT1G12845 (expressed protein) (261203_at, Cluster 6): 0.98; Fold-change of gene AT1G15550 (gibberellin 3-beta-dioxygenase) (261768_at, Cluster 6): 0.77; Fold-change of gene AT1G80840 (WRKY family transcription factor) (261892_at, Cluster 9): 0.27; Fold-change of gene AT1G80080 (leucine-rich repeat family protein) (262040_at, Cluster 6): 0.77; Fold-change of gene AT1G80130 (expressed protein) (262050_at, Cluster 8): 1.04; Fold-change of gene AT1G21680 (expressed protein) (262505_at, Cluster 10): 1.12; Fold-change of gene AT1G34245 (expressed protein) (262543_at, Cluster 6): 1.14; Fold-change of gene AT1G78460 (SOUL heme-binding family protein) (263126_at, Cluster 7): 0.88; Fold-change of gene AT1G78820; AT1G78830 ([AT1G78820, curculin-like (mannose-binding) lectin family protein) (264279_s_at, Cluster 7): 0.88
